These results are taken from US20230097090A1, “IMPROVED LIPID NANOPARTICLES FOR DELIVERY OF NUCLEIC ACIDS” (ACUITAS THERAPEUTICS, INC., priority 2019, published 2023).

The nature of this series: pKa of representative cationic lipids. The format is physicochemical.
Where [1] appears, read: first Table 12, representative lipid compounds XIII.
The mark [2] stands for this setting: Table 2, lipids of Formula (II).

Usually pKa stands for the negative logarithm of the acid dissociation constant. Lower therefore signals a group that gives up its proton readily. Under setting [1], `CCCCCCCCCCN(C(=O)CCCCN(CCCC)CCCC)C(CCCCCCCCC(=O)OCC(CCCC)CCCCCC)CCCCCCCCC(=O)OCC(CCCC)CCCCCC` (stereo not shown) [XIII-31] displayed a pKa of 5.05.
The compound `CCCCCCCCCCN(C(=O)CCCCN(C)C)C(CCCCCCCCC(=O)OCC(CCCC)CCCCCC)CCCCCCCCC(=O)OCC(CCCC)CCCCCC` (stereo not shown) [XIII-7] displayed a pKa under setting [1] of 6.74.
Still for that read-out and setting: the figure for `CCCCCCCCCCN(C(=O)CCCN(C)C)C(CCCCCC(=O)OCC(CCCCCC)CCCCCCCC)CCCCCC(=O)OCC(CCCCCC)CCCCCCCC` (stereo not shown) [XIII-16] is 6.77.
The same measure, in the same setting: the figure for `CCCCCCC(CCCC)COC(=O)CCCCCCCCC(CCCCCCCCC(=O)OCC(CCCC)CCCCCC)N(CC(CC)CCCC)C(=O)CCCN(C)C` (stereo not shown) [XIII-20] is 6.84; for `CCCCCCCCCN(C(=O)CCN(C)C)C(CCCCCCCCC(=O)OCC(CCCC)CCCCCC)CCCCCCCCC(=O)OCC(CCCC)CCCCCC` (stereo not shown) [XIII-25] it is 6.2.
Same read-out and setting: the figure for `CCCCCCCCCCN(C(=O)CCCCN(CC)CC)C(CCCCCCCCC(=O)OCC(CCCC)CCCCCC)CCCCCCCCC(=O)OCC(CCCC)CCCCCC` (stereo not shown) [XIII-8] is 6.68.
Turning to `CCCCC(CCCC)OC(=O)CCCCCCCCC(CCCCCCCCC(=O)OC(CCCC)CCCC)N(CCCN(C)C)C(=O)CCCCCCCC(=O)OC(CCCC)CCCC` [II-24], under setting [2], the pKa is 6.14.
As to `CCCCCCCCCCN(C(=O)CCN1CCCC1)C(CCCCCCCCC(=O)OCC(CCCC)CCCCCC)CCCCCCCCC(=O)OCC(CCCC)CCCCCC` (stereo not shown) [XIII-33], the pKa under setting [1] stood at 6.19.
Still for that read-out and setting: with `CCCCCCCCCN(C(=O)CCCN(C)C)C(CCCCCCCCCOC(=O)C(CCCC)CCCCCC)CCCCCCCCCOC(=O)C(CCCC)CCCCCC` (stereo not shown) [XIII-32] the figure was 6.41.
Take `CCCCCCCCC(=O)N(CCCN(C)C)C(CCCCCCCCCOC(=O)C(CCCC)CCCCCC)CCCCCCCCCOC(=O)C(CCCC)CCCCCC` (stereo not shown) [II-17]: the pKa under setting [2] came to 6.27.
On to `CCCCCCCCCCN(C(=O)CCCN(C)C)C(CCCCCCCCC(=O)OCC(CCCC)CCCCCC)CCCCCCCCC(=O)OCC(CCCC)CCCCCC` (stereo not shown) [XIII-18], for which the pKa under setting [1] stood at 6.47.
The same measure, in the same setting: the figure for `CCCCCCCCCCN(C(=O)CCCCN1CCCC1)C(CCCCCCCCC(=O)OCC(CCCC)CCCCCC)CCCCCCCCC(=O)OCC(CCCC)CCCCCC` (stereo not shown) [XIII-9] is 6.83.
Same read-out and setting: with `CCCCCCCCCCN(C(=O)CCCN1CCCC1)C(CCCCCC(=O)OCC(CCCCCC)CCCCCCCC)CCCCCC(=O)OCC(CCCCCC)CCCCCCCC` (stereo not shown) [XIII-29] the figure was 6.81.
